The record followed here is PMC5566834 (2017).

The test system of the assay is Rd 13 (DNA, aptamer) CGGGGGGAGGCGGAGGGAGGACTGGGGCTTCATTGACGTTCTTCACAGTAGGGGTAAGGGCTTAGGTGGTTGGTGCCTG
Description: competitive fluorescence anisotropy. As to conditions: 140 mM Na+, 2 mM K+, 5 mM Mg2+, 2 mM Ca2+; 20 mM Tris pH 7.4; PosBD displaced; 1,000 pmol drug in 125 μl; less than posaconazole.

Take `OC(Cn1cncn1)(Cn1cncn1)c1ccc(F)cc1F`: the binding result is recorded as “weak”.
